Results: patent US11999727B2 (Tango Therapeutics, Inc., priority 2020, dated 2024)

Legend:
[1] = test system: HAP1 MTAP-intact cell line; test: SDMA in-cell western assay, HAP1 MTAP-intact; assay type: cell-based; details: Homo sapiens, HAP1, SDMA in-cell western, HAP1 MTAP-intact; read-out: MTAP HAP1 intact IC50
How it was run: (§1)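 Isogenic HAP1 pair: the MTAP-intact line expresses endogenous MTAP, and the deleted line is MTAP-null. Symmetric dimethylarginine was detected by in-cell western and IC50 values derived for each line.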

PRMT5 [2] = molecular target: T1, PRMT5 (Homo sapiens, UniProt O14744); test: PRMT5 biochemical IC50 assay with MTA as cofactor; details: PRMT5, MTA as cofactor; read-out: MTA IC50
T1 construct: purchased Viva (custom protein)
T1 sequence (O14744 whole entry): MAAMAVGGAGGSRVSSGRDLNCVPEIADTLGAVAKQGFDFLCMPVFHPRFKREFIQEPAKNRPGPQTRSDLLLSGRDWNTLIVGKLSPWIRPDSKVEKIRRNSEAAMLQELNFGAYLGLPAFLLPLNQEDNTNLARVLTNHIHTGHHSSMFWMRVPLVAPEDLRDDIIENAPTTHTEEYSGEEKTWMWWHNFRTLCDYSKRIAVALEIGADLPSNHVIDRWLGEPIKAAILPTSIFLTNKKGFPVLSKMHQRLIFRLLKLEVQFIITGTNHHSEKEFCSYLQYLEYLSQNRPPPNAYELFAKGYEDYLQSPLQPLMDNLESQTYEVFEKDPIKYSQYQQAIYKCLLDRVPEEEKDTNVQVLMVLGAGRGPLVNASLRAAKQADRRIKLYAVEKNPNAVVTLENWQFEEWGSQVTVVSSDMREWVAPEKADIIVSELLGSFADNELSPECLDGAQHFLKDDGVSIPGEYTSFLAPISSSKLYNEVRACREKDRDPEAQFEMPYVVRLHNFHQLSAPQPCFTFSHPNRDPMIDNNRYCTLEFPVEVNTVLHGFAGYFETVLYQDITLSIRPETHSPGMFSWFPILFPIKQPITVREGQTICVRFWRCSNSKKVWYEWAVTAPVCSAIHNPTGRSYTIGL
T1 sequence (Q9BQA1 whole entry partner): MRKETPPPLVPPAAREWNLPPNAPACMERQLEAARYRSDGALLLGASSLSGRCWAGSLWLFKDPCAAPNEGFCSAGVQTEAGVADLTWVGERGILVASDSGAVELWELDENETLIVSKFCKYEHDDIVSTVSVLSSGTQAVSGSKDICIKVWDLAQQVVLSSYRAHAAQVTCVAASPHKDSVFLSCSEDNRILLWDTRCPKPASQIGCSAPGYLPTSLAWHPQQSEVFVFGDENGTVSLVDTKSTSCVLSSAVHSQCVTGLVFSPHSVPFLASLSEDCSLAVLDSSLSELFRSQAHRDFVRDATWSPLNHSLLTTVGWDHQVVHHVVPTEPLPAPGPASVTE

[3] = test system: HAP1 MTAP-deleted cell line; test: Viability assay, MTAP-deleted cell line; assay type: cell-based; details: Homo sapiens, read-out: HAP1 MTAP deleted viability
From the text: Table 1 additionally indicates IC50 values in a viability assay for the MTAP-deleted cell line (column 10), indicating the effect of treatment with compound on cell survival.

PRMT5 [4] = molecular target: T1, PRMT5; test: PRMT5 biochemical IC50 assay with no cofactor; details: PRMT5, no cofactor
From the text: Table 1 indicates IC50 values (μM) against PRMT5 for exemplary compounds in the presence of SAM as cofactor, with no cofactor, and with MTA as cofactor, respectively (columns 4-6). […] Ki values can be calculated from the IC50 values as described in the Examples section. As detailed in the Examples section, for the assay performed in the presence of SAM, IC50=Ki×1.5 (Ki=IC50/1.5).

[5] = test system: HAP1 MTAP-deleted cell line; test: SDMA in-cell western assay, HAP1 MTAP-deleted; assay type: cell-based; details: for IC50: Homo sapiens, HAP1, SDMA in-cell western, HAP1 MTAP-deleted; for MTAP intact/deleted ratio: SDMA in-cell western
How it was run: as §1

PRMT5 [6] = molecular target: T1, PRMT5; test: PRMT5 biochemical IC50 assay with SAM as cofactor; details: PRMT5, SAM as cofactor; read-out: SAM IC50
[7] = HAP1, viability assay, MTAP-deleted cell line
[8] = read-out: HAP1 MTAP deleted IC50
[9] = IC50 ratio HAP1 MTAP-intact vs HAP1 MTAP-deleted
[10] = HAP1, viability, HAP1 MTAP-deleted cell line
[11] = read-out: No Cofactor/ rel IC50
[12] = read-out: HAP 1 MTAP deleted IC50
[13] = IC50 ratio HAP1 MTAP-intact / HAP1 MTAP-deleted

Row | IC50 [1] [nM] | IC50 (PRMT5 [2]) [nM] | IC50 (PRMT5 [4]; read-out: No Cofactor/rel IC50) [nM] | IC50 [5, 8] [nM] | IC50 (PRMT5 [6]) [nM] | IC50 (PRMT5 [4]; [11]) [nM] | IC50 [5, 12] [nM] | Compound | IC50 [3, 7] [nM] | MTAP intact/deleted ratio [5, 9] | IC50 [3, 10] [nM] | MTAP intact/deleted ratio [5, 13]
1 | < 100 | < 50 | < 50 | < 100 | < 50 |  |  | Cc1cc(NC(=O)C(=O)N2C[C@H](C)CC[C@H]2c2ccc3c(cnn3CCN(C)C)c2)cnc1N (single isomer, unassigned) [Compound 1182] | < 1000 | B (an IC50 ratio greater than or equal to 3 fold but lower than 10 fold) |  | 
2 | < 100 | < 50 | < 50 | < 100 | 50 to 500 |  |  | CCc1cc(NC(=O)C(=O)N2C[C@@H](C)CC[C@@H]2c2ccc3sc([C@H](C)N(C)C)nc3c2)cnc1N (single isomer, unassigned) [Compound 1188] | < 1000 | A (an IC50 ratio greater than or equal to 10 fold) |  | 
3 | 100 to 1000 | < 50 | < 50 | < 100 | 50 to 500 |  |  | Cc1cc(NC(=O)C(=O)N2C[C@H](C)[C@H](CC(C)C)C[C@H]2c2ccc3scnc3c2)cnc1N (single isomer, unassigned) [Compound 1190] | < 1000 | A (an IC50 ratio greater than or equal to 10 fold) |  | 
4 | > 1000 | > 500 | > 500 | > 1000 | > 500 |  |  | Cc1cc(NC(=O)C(=O)N2C[C@H](C)CC[C@H]2c2cc(F)c3[nH]ncc3c2)cnc1N (single isomer, unassigned) [Compound 1191] | > 10000 |  |  | 
5 | > 1000 | > 500 | > 500 | > 1000 | > 500 |  |  | Cc1cc(NC(=O)C(=O)N2C[C@H](C)CC[C@H]2c2ccc(N3CCN(C)CC3)cc2)cnc1N (single isomer, unassigned) [Compound 1193] | > 10000 |  |  | 
6 | < 100 | < 50 | < 50 | < 100 | < 50 |  |  | CCc1cc(NC(=O)C(=O)N2C[C@@H](C)CC[C@@H]2c2ccc3sc(CCN(C)C)nc3c2)cnc1N (single isomer, unassigned) [Compound 1196] | < 1000 | A (an IC50 ratio greater than or equal to 10 fold) |  | 
7 | 100 to 1000 | < 50 | < 50 | < 100 | 50 to 500 |  |  | CCc1cc(NC(=O)C(=O)N2C[C@@H](C)CC[C@@H]2c2ccc(N3CC[C@H]4CCN(C)C[C@H]4C3)cc2)cnc1N (single isomer, unassigned) [Compound 1204] | < 1000 | A (an IC50 ratio greater than or equal to 10 fold) |  | 
8 | 100 to 1000 | < 50 | < 50 | < 100 | < 50 |  |  | C[C@H]1CC[C@H](c2ccc3cncn3c2)N(C(=O)C(=O)Nc2cnc(N)c(C3CC3)c2)C1 (single isomer, unassigned) [Compound 1205, N-(6-amino-5-cyclopropylpyridin-3-yl)-2-(2-(imidazo[1,5-a]pyridin-6-yl)-5-methylpiperidin-1-yl)-2-oxoacetamide] | < 1000 | A (an IC50 ratio greater than or equal to 10 fold) |  | 
9 | 100 to 1000 | 50 to 500 | 50 to 500 | < 100 | 50 to 500 |  |  | C[C@H]1CN(C(=O)C(=O)Nc2cnc(N)c(C3CC3)c2)[C@H](c2ccc3scnc3c2)CC1(F)F (single isomer, unassigned) [Compound 1207] | < 1000 | A (an IC50 ratio greater than or equal to 10 fold) |  | 
10 | 100 to 1000 | < 50 | < 50 | < 100 | 50 to 500 |  |  | CCc1cc(NC(=O)C(=O)N2C[C@@H](C)CC[C@@H]2c2ccc(N3CCN(C(C)C)CC3)cc2)cnc1N (single isomer, unassigned) [Compound 1208] | < 1000 | A (an IC50 ratio greater than or equal to 10 fold) |  | 
11 | > 1000 | < 50 | 50 to 500 | 100 to 1000 | 50 to 500 |  |  | Cc1cc(NC(=O)C(=O)N2C[C@H](C)[C@@H](CC(C)C)C[C@H]2c2ccc3scnc3c2)cnc1N (single isomer, unassigned) [Compound 1210] | 1000 to 10000 |  |  | 
12 | < 100 | < 50 | 50 to 500 | < 100 | 50 to 500 |  |  | COCc1nc2cc([C@H]3CC[C@H](C)CN3C(=O)C(=O)Nc3cnc(N)c(C)c3)ccc2s1 (single isomer, unassigned) [Compound 1211] | < 1000 | A (an IC50 ratio greater than or equal to 10 fold) |  | 
13 | 100 to 1000 | < 50 | < 50 | < 100 | 50 to 500 |  |  | Cc1cc(NC(=O)C(=O)N2C[C@@H](C)[C@@H](OC(F)(F)F)C[C@@H]2c2ccc(F)cc2)cnc1N (single isomer, unassigned) [Compound 1213] | < 1000 | A (an IC50 ratio greater than or equal to 10 fold) |  | 
14 | < 100 | < 50 | < 50 | < 100 | < 50 |  |  | C[C@@H]1CC[C@@H](c2ccc3sc(CCN(C)C)nc3c2)N(C(=O)C(=O)Nc2cnc(N)c(C3CC3)c2)C1 (single isomer, unassigned) [Compound 1218] | < 1000 | A (an IC50 ratio greater than or equal to 10 fold) |  | 
15 | < 100 | < 50 | < 50 | < 100 | < 50 |  |  | Cc1cc(NC(=O)C(=O)N2C[C@@H](C)CC[C@@H]2c2cccc(N3CCN(C)CC3)c2)cnc1N (single isomer, unassigned) [Compound 1229] | < 1000 | B (an IC50 ratio greater than or equal to 3 fold but lower than 10 fold) |  | 
16 | > 1000 | > 500 | > 500 | > 1000 | > 500 |  |  | CCc1cc(NC(=O)C(=O)N2C[C@H](C)CC[C@H]2c2ccc(N3CCN(C(C)C)CC3)cc2)cnc1N (single isomer, unassigned) [Compound 1234] | 1000 to 10000 |  |  | 
17 | > 1000 | > 500 |  |  | > 500 | > 500 | > 1000 | CO[C@@H]1C[C@@H](c2ccc3scnc3c2)N(C(=O)C(=O)Nc2cnc(N)c(C3CC3)c2)C[C@@H]1C (single isomer, unassigned) [Compound 1241] |  |  | 1000 to 10000 | 
18 | 100 to 1000 | < 50 |  |  | 50 to 500 | < 50 | < 100 | CCc1cc(NC(=O)C(=O)N2C[C@@H](C)CC[C@@H]2c2ccc(N3CCC4(CCCN(C)C4)CC3)cc2)cnc1N (single isomer, unassigned) [Compound 1243] |  |  | < 1000 | A (an IC50 ratio greater than or equal to 10 fold)
19 | 100 to 1000 | < 50 |  |  | 50 to 500 | < 50 | < 100 | C[C@@H]1CC[C@@H](c2ccc3c(cnn3CCN(C)C)c2)N(C(=O)C(=O)Nc2cnc(N)c(C3CC3)c2)C1 (single isomer, unassigned) [Compound 1249] |  |  | < 1000 | A (an IC50 ratio greater than or equal to 10 fold)
20 | < 100 | < 50 |  |  | < 50 | < 50 | < 100 | C[C@H]1CC[C@H](c2ccc3[nH]ncc3c2)N(C(=O)C(=O)Nc2cnc(N)c(C3CC3)c2)C1 (single isomer, unassigned) [Compound 1251] |  |  | < 1000 | A (an IC50 ratio greater than or equal to 10 fold)
21 | 100 to 1000 | < 50 |  |  | < 50 | < 50 | < 100 | Cc1cc(NC(=O)C(=O)N2C[C@@H](C)CC[C@@H]2c2cccc(C3CCN(C)CC3)c2)cnc1N (single isomer, unassigned) [Compound 1253] |  |  | < 1000 | A (an IC50 ratio greater than or equal to 10 fold)
22 | 100 to 1000 | < 50 |  |  | < 50 | < 50 | < 100 | C[C@@H]1CC[C@@H](c2ccc3sc(CCN(C)C)nc3c2)N(C(=O)C(=O)Nc2cncc(C(N)=O)c2)C1 (single isomer, unassigned) [Compound 1254] |  |  | < 1000 | A (an IC50 ratio greater than or equal to 10 fold)
